Laboratory results published in US10039779B2, “Combination formulation of two antiviral compounds” (priority 2013, dated 2018).
Values after ≈ are worked out from the molar mass of the structure shown.

What was measured:
Type in all cases: physicochemical
[1] = Aqueous solubility with 0.1% w/w surfactants and polymers; dissolution behavior of forms; conditions: for solubility: thermodynamic from solid
Procedure: Excess solid was added to aqueous buffered solutions; samples were withdrawn at predetermined intervals (2, 5, 8, 10, 15, 20, 30, 45, 60 minutes, and 24 hours), filtered through regenerated cellulose filters, and diluted for concentration measurement by the HPLC-UV method.

[2] = Excipient and organic solvent solubility; conditions: thermodynamic from solid
Procedure: Solubility of ledipasvir amorphous free base and ledipasvir crystalline D-tartrate was measured in a wide range of pharmaceutically acceptable solvents, including cosolvents, surfactants, fatty acids, triglycerides, or blends thereof. Material was weighed into scintillation vials and stirred for up to 48 hours at room temperature. In many cases, solubility was higher than the amount of solid used in the sample, thus many results are reported as ‘greater than’ or ‘greater than or equal to’ if the concentration was not quantitatively determined by HPLC-UV.

[3] = pH-solubility profile and solubility in simulated intestinal media; conditions: for solubility at 48 h: thermodynamic from solid
Procedure: Excess solid ledipasvir was added to a range of pH-adjusted aqueous solutions (titrated with HCl or NaOH) and stirred for 48 hours at room temperature. The suspensions were then filtered through regenerated cellulose syringe filters. The pH value of the supernatant was measured, and the supernatant was diluted as appropriate with 50:50 H2O+0.1% TFA:ACN and assayed for ledipasvir content by the HPLC-UV method.
Solubility of ledipasvir amorphous free base was assessed in three types of simulated intestinal fluids at pH 6.5 or pH 5.0; and simulated intestinal bile salt and lecithin mixture (SIBLM), pH 6.4. Excess solid ledipasvir was added to the respective SIFs and stirred for 48 hours at room temperature. The resulting suspensions were then filtered through regenerated cellulose syringe filters. The supernatant was diluted as appropriate with 50:50 H2O+0.1% TFA:ACN and assayed for ledipasvir content by the HPLC-UV method.

COC(=O)N[C@H](C(=O)N1CC2(CC2)C[C@H]1c1ncc(-c2ccc3c(c2)C(F)(F)c2cc(-c4ccc5nc([C@@H]6[C@H]7CC[C@H](C7)N6C(=O)[C@@H](NC(=O)OC)C(C)C)[nH]c5c4)ccc2-3)[nH]1)C(C)C [Ledipasvir amorphous free base]
dissolution behavior relative to other ledipasvir forms ([1]; aqueous buffered solutions): faster than that of the crystalline free base and acetone solvate forms
solubility ([1]; aqueous citrate buffer with excipient, pH 2, aqueous with cosolvent or surfactant or cyclodextrin, 0.1% w/w PVP (povidone), pH 2): 5470 µg/mL (≈ 6150 µM)
solubility ([1]; aqueous citrate buffer with excipient, pH 2, aqueous with cosolvent or surfactant or cyclodextrin, 0.1% w/w PVP/VA (copovidone), pH 2): 6730 µg/mL (≈ 7570 µM)
solubility ([1]; aqueous citrate buffer with excipient, pH 2, aqueous with cosolvent or surfactant or cyclodextrin, 0.1% w/w Sodium lauryl sulfate, pH 2): 50 µg/mL (≈ 56.2 µM)
solubility ([1]; aqueous citrate buffer with excipient, pH 5, aqueous with cosolvent or surfactant or cyclodextrin, 0.1% w/w PVP (povidone), pH 5): 0.4 µg/mL (≈ 0.45 µM)
solubility ([1]; aqueous citrate buffer with excipient, pH 5, aqueous with cosolvent or surfactant or cyclodextrin, 0.1% w/w PVP/VA (copovidone), pH 5): 1 µg/mL (≈ 1.12 µM)
solubility ([1]; aqueous citrate buffer with excipient, pH 5, aqueous with cosolvent or surfactant or cyclodextrin, 0.1% w/w Sodium lauryl sulfate, pH 5): 243 µg/mL (≈ 273 µM)
solubility ([1]; aqueous citrate buffer, no excipient, pH 2, aqueous buffer, pH 2, room temperature): 4940 µg/mL (≈ 5560 µM)
solubility ([1]; aqueous citrate buffer, no excipient, pH 5, aqueous buffer, pH 5, room temperature): 0.1 µg/mL (≈ 0.112 µM)
solubility ([1]; pH 2, aqueous with cosolvent or surfactant or cyclodextrin, 0.1% w/w Cremaphor EL, pH 2): 9110 µg/mL (≈ 10200 µM)
solubility ([1]; pH 2, aqueous with cosolvent or surfactant or cyclodextrin, 0.1% w/w HPC (hydroxypropylcellulose), pH 2): 4670 µg/mL (≈ 5250 µM)
solubility ([1]; pH 2, aqueous with cosolvent or surfactant or cyclodextrin, 0.1% w/w HPMC (hydroxymethylcellulose), pH 2): 5270 µg/mL (≈ 5930 µM)
solubility ([1]; pH 2, aqueous with cosolvent or surfactant or cyclodextrin, 0.1% w/w Labrasol, pH 2): 7440 µg/mL (≈ 8370 µM)
solubility ([1]; pH 2, aqueous with cosolvent or surfactant or cyclodextrin, 0.1% w/w Poloxamer 188, pH 2): 7190 µg/mL (≈ 8090 µM)
solubility ([1]; pH 2, aqueous with cosolvent or surfactant or cyclodextrin, 0.1% w/w Polysorbate 80, pH 2): 9270 µg/mL (≈ 10400 µM)
solubility ([1]; pH 5, aqueous with cosolvent or surfactant or cyclodextrin, 0.1% w/w Cremaphor EL, pH 5): 69.9 µg/mL (≈ 78.6 µM)
solubility ([1]; pH 5, aqueous with cosolvent or surfactant or cyclodextrin, 0.1% w/w HPC (hydroxypropylcellulose), pH 5): 0.1 µg/mL (≈ 0.112 µM)
solubility ([1]; pH 5, aqueous with cosolvent or surfactant or cyclodextrin, 0.1% w/w HPMC (hydroxymethylcellulose), pH 5): 0.3 µg/mL (≈ 0.337 µM)
solubility ([1]; pH 5, aqueous with cosolvent or surfactant or cyclodextrin, 0.1% w/w Poloxamer 188, pH 5): 0.5 µg/mL (≈ 0.562 µM)
solubility ([1]; pH 5, aqueous with cosolvent or surfactant or cyclodextrin, 0.1% w/w Polysorbate 80, pH 5): 62.4 µg/mL (≈ 70.2 µM)
solubility ([2]; oil or lipid): > 500000 µg/mL
solubility ([2]; pH 2.5, aqueous with cosolvent or surfactant or cyclodextrin): 25000 µg/mL (≈ 28100 µM)
solubility ([3]; Aqueous, pH 1.6 (HCl), room temperature): 6855 µg/mL (≈ 7710 µM)
solubility ([3]; Aqueous, pH 2.3 (HCl), room temperature): 1096 µg/mL (≈ 1230 µM)
solubility at 48 h ([3]; FaSSIF, pH 6.5, fassif, FaSSIF pH = 6.5, room temperature): 25 µg/mL (≈ 28.1 µM)
solubility at 48 h ([3]; FeSSIF, pH 5, fessif, FeSSIF pH = 5.0, room temperature): 230 µg/mL (≈ 259 µM)
solubility at 48 h ([3]; SIBLM (simulated intestinal bile salt and lecithin mixture), pH 6.4, fassgf or other biorelevant, SIBLM pH = 6.4, room temperature): 232 µg/mL
intrinsic solubility (S0) ([3]; aqueous, neutral form (pH>5), room temperature): approximately 0.04 μg/mL
solubility at 48 h ([3]; pH-adjusted aqueous solution (HCl), pH 1.6, aqueous buffer, Aqueous, pH 1.6 (HCl), room temperature): ~7000 µg/mL (≈ 7870 µM)
solubility at 48 h ([3]; pH-adjusted aqueous solution (HCl), pH 2.3, aqueous buffer, Aqueous, pH 2.3 (HCl), room temperature): 1000 µg/mL (≈ 1120 µM)
solubility at 48 h ([3]; pH-adjusted aqueous solution, pH 3.1, aqueous buffer, Aqueous, pH 3.1 (HCl), room temperature): 13.2 µg/mL (≈ 14.8 µM)
solubility at 48 h ([3]; pH-adjusted aqueous solution, pH 4.1, aqueous buffer, Aqueous, pH 4.1 (HCl), room temperature): 0.11 µg/mL (≈ 0.124 µM)
solubility at 48 h ([3]; pH-adjusted aqueous solution, pH 5.5, aqueous buffer, Aqueous, pH 5.5 (HCl), room temperature): 0.03 µg/mL (≈ 0.0337 µM)
solubility at 48 h ([3]; pH-adjusted aqueous solution, pH 6.2, water, Aqueous, pH 6.2 (unaltered), room temperature): 0.03 µg/mL (≈ 0.0337 µM)
solubility at 48 h ([3]; pH-adjusted aqueous solution, pH 7.2, aqueous buffer, Aqueous, pH 7.2 (NaOH), room temperature): 0.01 µg/mL (≈ 0.0112 µM)
increase of solubility in SIBLM over FaSSIF ([3]; room temperature): approximately 10 fold
